From patent US20230391776A1, “AMIDE OXAZOLE COMPOUND” (MEDSHINE DISCOVERY INC., priority 2020, published 2023)

Assays:
[1] = system: OCI-LY10 human diffuse large B lymphoma cells; test: OCI-LY10 cell proliferation (Cell Titer Glo); type: cell-based; conditions: 72 hours
Procedure: (§1) The tumor cell lines OCI-LY10 and TMD-8 were used to detect the effect of the compound of the disclosure on inhibiting tumor cell proliferation in vitro.
OCI-LY10 human diffuse large B lymphoma cells, from Nanjing Cobioer Biotechnology Co., Ltd
(§2) The compound was diluted with DMSO to a final concentration of 10 mM. The compound was freshly prepared and ready for use.
(§3) a) Logarithmic growth period cells were collected, counted, resuspended with complete culture medium, the cell concentration was adjusted to an appropriate concentration (determined according to the results of cell density optimization test), inoculated on 96-well plates, and 100 μL of cell suspension was added to each well. Cells were incubated in an incubator with 37° C., 100% relative humidity and 5% CO2 for 24 hours.
(§4) b) The compound to be tested was diluted to 50 μM with culture medium and then gradient diluted for 8 times. Cells were added with 25 μL/well. The final concentrations of the compound were from […], 3-fold gradient dilution, with a total of 9 concentration points.
(§5) c) Cells were incubated in an incubator with 37° C., 100% relative humidity and 5% CO2 for 72 hours;
(§6) d) 60 μL of CTG test reagent was added to the culture medium.
(§7) e) Shaked fully and reacted in the dark for 10 min. Luminescence was measured on ENVISION and the inhibition rate was calculated.
(§8) Cell growth inhibition rate %=[(RLUv−RLUs)/(RLUv−RLUb)]×100%

[2] = system: OCI-LY3 cell line; test: OCI-LY3 cell proliferation (CTG); type: cell-based; conditions: Homo sapiens, 72 hours
Procedure: The tumor cell line OCI-LY3 was used to detect the effect of the compound of the disclosure on inhibiting tumor cell proliferation in vitro.
The tumor cell line used in this experiment was provided by Nanjing Cobioer Biotechnology Co., Ltd. See Table 6 below for specific information.
The OCI-LY3 cell line was cultured in the corresponding medium at 37° C. and 5% CO2, and the logarithmic growth period cells were used for experimental planking. The cells were collected and centrifuged at 800 rpm for 5 minutes, and the culture medium was re-suspended and spread in a 96-well plate. After being cultured overnight in 37° C., 5% CO2 incubator, drugs with different concentration gradients (10 μL of prepared diluent of test compound was added) were added, and incubated in 37° C., 5% CO2 incubator for 72 hours. The cell culture plate was incubated with CTG reagent at room temperature in the dark for 30 minutes and return to room temperature. CTG solution was added into the biosafety cabinet in the dark 100 μL/well, and was shaken and mixed evenly on plate shaker in the dark for 2 minutes, and incubated at room temperature in the dark for 10 minutes. The luminous value was read and recorded with Perkin Elmer Envision instrument.
The luminous value of the blank control group was subtracted from the luminous value measured at each drug concentration, the ratio of this value to DMSO group was taken as the cell inhibition rate (%). GraphPad software was used, the logarithm of drug concentration (log drug concentration) versus inhibition rate was plotted, and the IC50 value and 95% confidence value were automatically fitted and calculated by log (inhibitor) vs. response-variable slop (four parameters) algorithm of nonlinear regression by software.

[3] = target: T1, human IRAK4 (Homo sapiens, UniProt Q9NWZ3); test: In vitro IRAK4 kinase activity, 33P isotope-labeled kinase assay; type: biochemical
T1 construct: purchased Reaction Biology Corp
T1 sequence (Q9NWZ3 1-460): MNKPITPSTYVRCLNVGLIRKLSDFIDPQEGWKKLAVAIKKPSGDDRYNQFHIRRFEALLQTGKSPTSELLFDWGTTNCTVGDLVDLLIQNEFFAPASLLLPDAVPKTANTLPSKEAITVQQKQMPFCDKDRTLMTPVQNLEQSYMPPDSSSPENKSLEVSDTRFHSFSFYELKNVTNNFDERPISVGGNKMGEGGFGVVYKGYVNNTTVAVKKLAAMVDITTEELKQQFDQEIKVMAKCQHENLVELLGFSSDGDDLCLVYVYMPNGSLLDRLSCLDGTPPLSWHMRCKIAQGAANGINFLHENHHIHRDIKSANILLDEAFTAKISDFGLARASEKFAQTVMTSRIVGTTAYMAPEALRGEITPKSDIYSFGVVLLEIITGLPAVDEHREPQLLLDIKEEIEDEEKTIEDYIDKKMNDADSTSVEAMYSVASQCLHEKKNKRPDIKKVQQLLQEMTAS
Procedure: The IC50 values were determined using ^33P isotope-labeled kinase activity assay (Reaction Biology Corp) to evaluate the inhibitory ability of the tested compounds on human IRAK4.
(§9) Buffer conditions: 20 mM Hepes (pH 7.5), 10 mM MgCl2, 1 mM EGTA, 0.02% Brij35, 0.02 mg/mL BSA, 0.1 mM Na3VO4, 2 mM DTT, 1% DMSO.
Test procedure: At room temperature, the tested compound was dissolved in DMSO and a 10 mM solution was prepared for use. The substrate was dissolved in a newly prepared buffer solution, and the tested IRAK4 kinase was added thereto and mixed evenly. The DMSO solution dissolved with the tested compound was added to the above mixed evenly reaction solution using acoustic technique (Echo 550). After incubation for 15 minutes, ^33P-ATP was added to initiate the reaction. The reaction was carried out at room temperature for 120 minutes, and the reaction mixture was dropped on P81 ion exchange filter paper (Whatman #3698-915). The filter paper was washed repeatedly with 0.75% phosphoric acid solution, and the radioactivity of phosphorylated substrate residues on the filter paper was determined. The kinase activity data were expressed by comparing the kinase activity of the group containing the tested compound with the kinase activity of the blank group (only containing DMSO), and the IC50 value was obtained by curve fitting by Prism4 software (GraphPad), the experimental results were shown in Table 2.

[4] = system: TNF-α production in THP-1 cells; test: TNF-α ELISA in LPS-stimulated THP-1 cells; type: cell-based; conditions: Homo sapiens, TNF-α in supernatant, 150 ng/mL LPS, 18 hours
Procedure: THP-1 human acute single cell leukemia cells were purchased from ATCC (Cat #TIB-202) and cultured at 37° C. in 5% CO2 incubator. The composition of medium was RPMI1640 (Gibco, Cat #22400-105), and the supplementary compositions were 10% FBS (Gibco, Cat #10091148); 1% PenStrep (Gibco, Cat #15140); 0.05 mM β-mercaptoethanol (Sigma, Cat #M6250).
TNF-α Elisa kit was used to detect the content of TNF-α in cell culture supernatant samples. TNF-α was produced by stimulating THP-1 cells with 150 ng/mL LPS (Sigma, Cat #L6529).
THP-1 cells cultured normally at logarithmic growth period were seeded in a 96-well plate (Corning #3599) at a certain concentration (1*10^5/100 μL) and then put into a cell incubator for incubation. After two hours, 16.7 μL of different concentrations of the compound to be tested (8*final concentration) were added and incubated in an incubator. After one hour, 16.7 μL of 1200 ng/mL LPS was added and incubated in an incubator. After 18 hours, the culture supernatant samples were collected by centrifugation, and the content of TNF-α could be detected by TNF-α Elisa kit. Finally, OD signals (OD450-OD570) were read on envision board reader.
The OD450-OD570 signal value was converted into a percentage inhibition rate.
Inhibition rate %=(ZPE−sample)/(ZPE−HPE)*100.
“HPE” referred to the OD450-OD570 signal value of the control well without LPS stimulated cells, and “ZPE” referred to the OD450-OD570 signal value of the control well with LPS stimulated cells. The IC50 value of the compound was calculated by XLFit in the excel add-in.
Y=Bottom+(Top−Bottom)/(1+(IC50/X)^HillSlope). Equation: […]

[5] = target: T2, human BTK (Homo sapiens, UniProt Q06187); test: In vitro BTK kinase activity, 33P isotope-labeled kinase assay; type: biochemical
T2 construct: purchased Reaction Biology Corp
T2 sequence (Q06187 whole entry): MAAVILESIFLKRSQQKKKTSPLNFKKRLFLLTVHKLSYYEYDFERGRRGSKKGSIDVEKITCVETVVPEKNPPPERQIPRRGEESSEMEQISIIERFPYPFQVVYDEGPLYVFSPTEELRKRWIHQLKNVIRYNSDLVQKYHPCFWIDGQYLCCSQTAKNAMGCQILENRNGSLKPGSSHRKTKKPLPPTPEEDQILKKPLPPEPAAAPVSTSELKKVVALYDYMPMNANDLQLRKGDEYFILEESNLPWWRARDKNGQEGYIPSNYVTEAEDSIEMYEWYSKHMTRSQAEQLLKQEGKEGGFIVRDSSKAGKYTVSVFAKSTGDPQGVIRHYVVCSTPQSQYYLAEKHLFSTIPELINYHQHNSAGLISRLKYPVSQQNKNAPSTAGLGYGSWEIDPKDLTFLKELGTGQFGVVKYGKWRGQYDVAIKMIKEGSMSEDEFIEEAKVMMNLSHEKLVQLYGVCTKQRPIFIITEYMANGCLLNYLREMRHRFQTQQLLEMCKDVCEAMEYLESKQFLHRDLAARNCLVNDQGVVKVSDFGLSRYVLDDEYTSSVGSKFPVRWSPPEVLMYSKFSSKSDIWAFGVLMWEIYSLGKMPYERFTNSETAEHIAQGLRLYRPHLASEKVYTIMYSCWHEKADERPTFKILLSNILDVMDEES
Procedure: The IC50 values were determined using ^33P isotope-labeled kinase activity assay (Reaction Biology Corp) to evaluate the inhibitory ability of the tested compounds on human BTK.
as §9
Test procedure: At room temperature, the tested compound was dissolved in DMSO and a 10 mM solution was prepared for use. The substrate was dissolved in a newly prepared buffer solution, and the BTK kinase was added thereto and mixed evenly. The compound dissolved in DMSO was added to the kinase reaction mixture through Echo 550 (Acoustic technology; Nanoliter range). After incubation for 20 minutes at room temperature, ^33P-ATP was added to initiate the reaction. The reaction was carried out at room temperature for 2 hours, and the radioactivity of the reaction solution drop was detected by filtration-binding method with P81 ion exchange filter paper. The kinase activity data were expressed by comparing the kinase activity of the group containing the tested compound with the kinase activity of the blank group (only containing DMSO), and the IC50 value was obtained by curve fitting by Prism4 software (GraphPad), the experimental results were shown in Table 3.

[6] = system: TMD-8 human diffuse large B lymphoma cells; test: TMD-8 cell proliferation (Cell Titer Glo); type: cell-based; conditions: TMD8, 72 hours
Procedure: as §1
TMD-8 human diffuse large B lymphoma cells, from Nanjing Cobioer Biotechnology Co., Ltd
as §2, §3, §4, §5, §6, §7, §8

Compound | IC50 [1] [nM] | IC50 [2] [nM] | IC50 [3] [nM] | IC50 [4] [nM] | IC50 [5] [nM] | IC50 [6] [nM]
CC(C)(O)CCc1cn2cc(NC(=O)c3coc(-c4ccnc(N)c4)n3)c(N3CCCCC3)cc2n1 [WX001] | 29 | 57 | 1.8 | 20 | 7.9 | 10
CC(=O)Nc1cc(-c2nc(C(=O)Nc3cn4cc(CCC(C)(C)O)nc4cc3N3CCCCC3)co2)ccn1 [WX002] | 125 | – | 6.6 | 116 | – | –
COc1cc(-c2nc(C(=O)Nc3cn4cc(CCC(C)(C)O)nc4cc3N3CCCCC3)co2)ccn1 [WX003] | – | – | 0.6 | – | 15.4 | –
CN(C)c1cc(-c2nc(C(=O)Nc3cn4cc(CCC(C)(C)O)nc4cc3N3CCCCC3)co2)ccn1 [WX004] | – | – | 12 | – | – | –
CNc1cc(-c2nc(C(=O)Nc3cn4cc(CCC(C)(C)O)nc4cc3N3CCCCC3)co2)ccn1 [WX006] | 36 | – | 1 | 94 | 0.7 | 183
CS(=O)(=O)CCc1cn2cc(NC(=O)c3coc(-c4ccnc(N)c4)n3)c(N3CCCCC3)cc2n1 [WX011] | 6 | 26 | 4.7 | – | 1.3 | 28
CN(C)CCc1cn2cc(NC(=O)c3coc(-c4ccnc(N)c4)n3)c(-c3ccccc3)cc2n1 [WX016] | 3 | 37 | 2 | – | 1.6 | 6
Cc1cc(-c2nc(C(=O)Nc3cn4cc(CC(N)=O)nc4cc3-c3ccccc3)co2)ccn1 [WX025] | – | – | 0.1 | – | – | –
Cc1nccc(-c2nc(C(=O)Nc3cn4cc(C(C)(C)O)nc4cc3-c3ccccc3)co2)c1F [WX028] | – | – | 0.1 | – | – | –
Cc1cc(-c2nc(C(=O)Nc3cn4cc(CC(C)(C)O)nc4cc3-c3ccccc3)co2)ccn1 [WX038] | – | – | 0.3 | – | – | –

Second part, the compound after the results:

IC50 [1] [nM] | IC50 [2] [nM] | IC50 [3] [nM] | IC50 [4] [nM] | IC50 [5] [nM] | IC50 [6] [nM] | Compound
– | – | 1.5 | 171 | 0.6 | 325 | CC(C)(O)CCc1cn2cc(NC(=O)c3coc(-c4ccnc5[nH]ccc45)n3)c(N3CCCCC3)cc2n1 [WX005]
– | – | 0.4 | – | 4.1 | – | Cc1cc(-c2nc(C(=O)Nc3cn4cc(CCC(C)(C)O)nc4cc3N3CCC4(CCOC4)CC3)co2)ccn1 [WX007]
– | – | 4.3 | – | 71 | – | Cc1cc(-c2nc(C(=O)Nc3cn4cc(CCC(C)(C)O)nc4cc3N3CCC4(CC3)COC4)co2)ccn1 [WX008]
– | – | 2.1 | – | 21.2 | – | Cc1cc(-c2nc(C(=O)Nc3cn4cc(C(C)(C)O)nc4cc3N3CCC(CO)CC3)co2)ccn1 [WX010]
20 | – | 0.4 | – | 14.4 | – | Cc1cc(-c2nc(C(=O)Nc3cn4cc(CCS(C)(=O)=O)nc4cc3-c3ccccc3)co2)ccn1 [WX012]
18 | 41 | 2.5 | – | 0.5 | 40 | CN(C)CCc1cn2cc(NC(=O)c3coc(-c4ccnc(N)c4)n3)c(N3CCCCC3)cc2n1 [WX014]
36 | – | 0.4 | 60 | 5.6 | – | Cc1cc(-c2nc(C(=O)Nc3cn4cc(CCN(C)C)nc4cc3-c3ccccc3)co2)ccn1 [WX015]
– | – | 5.1 | – | – | – | Cc1cc(-c2nc(C(=O)Nc3cn4cc(C(C)(C)O)nc4nc3-c3ccccc3)co2)ccn1 [WX018]
– | – | 0.3 | – | 19.8 | – | Cc1cc(-c2nc(C(=O)Nc3cn4cc(C(C)(C)O)nc4cc3-c3ccccn3)co2)ccn1 [WX021]
– | – | 0.1 | – | 45 | – | COc1cc(-c2nc(C(=O)Nc3cn4cc(C(C)(C)O)nc4cc3-c3ccccc3)co2)ccn1 [WX022]
14 | – | 0.1 | – | 1 | – | CNc1cc(-c2nc(C(=O)Nc3cn4cc(C(C)(C)O)nc4cc3-c3ccccc3)co2)ccn1 [WX023]
48 | – | 0.1 | – | – | – | Cc1cc(-c2nc(C(=O)Nc3cn4cc(S(C)(=O)=O)nc4cc3-c3ccccc3)co2)ccn1 [WX029]
– | – | 0.9 | – | – | – | Cc1cc(-c2nc(C(=O)Nc3cn4cc(N=S(C)(C)=O)nc4cc3-c3ccccc3)co2)ccn1 [WX032]
15.2 | 42 | 0.4 | 57.1 | – | 16.7 | Cc1nccc(-c2nc(C(=O)Nc3cn4cc(C(C)(C)O)nc4cc3-c3ccccc3)co2)c1Cl [WX036]
